{"source": "ChEMBL document CHEMBL1150269", "about": "“Structural origin of selectivity in class II-selective histone deacetylase inhibitors” (J Med Chem, 2008)", "key": {"[1]": {"molecular_target": "T1, Protein deacetylase HDAC6 (Homo sapiens, UniProt Q9UBN7)", "T1 sequence (Q9UBN7 whole entry)": "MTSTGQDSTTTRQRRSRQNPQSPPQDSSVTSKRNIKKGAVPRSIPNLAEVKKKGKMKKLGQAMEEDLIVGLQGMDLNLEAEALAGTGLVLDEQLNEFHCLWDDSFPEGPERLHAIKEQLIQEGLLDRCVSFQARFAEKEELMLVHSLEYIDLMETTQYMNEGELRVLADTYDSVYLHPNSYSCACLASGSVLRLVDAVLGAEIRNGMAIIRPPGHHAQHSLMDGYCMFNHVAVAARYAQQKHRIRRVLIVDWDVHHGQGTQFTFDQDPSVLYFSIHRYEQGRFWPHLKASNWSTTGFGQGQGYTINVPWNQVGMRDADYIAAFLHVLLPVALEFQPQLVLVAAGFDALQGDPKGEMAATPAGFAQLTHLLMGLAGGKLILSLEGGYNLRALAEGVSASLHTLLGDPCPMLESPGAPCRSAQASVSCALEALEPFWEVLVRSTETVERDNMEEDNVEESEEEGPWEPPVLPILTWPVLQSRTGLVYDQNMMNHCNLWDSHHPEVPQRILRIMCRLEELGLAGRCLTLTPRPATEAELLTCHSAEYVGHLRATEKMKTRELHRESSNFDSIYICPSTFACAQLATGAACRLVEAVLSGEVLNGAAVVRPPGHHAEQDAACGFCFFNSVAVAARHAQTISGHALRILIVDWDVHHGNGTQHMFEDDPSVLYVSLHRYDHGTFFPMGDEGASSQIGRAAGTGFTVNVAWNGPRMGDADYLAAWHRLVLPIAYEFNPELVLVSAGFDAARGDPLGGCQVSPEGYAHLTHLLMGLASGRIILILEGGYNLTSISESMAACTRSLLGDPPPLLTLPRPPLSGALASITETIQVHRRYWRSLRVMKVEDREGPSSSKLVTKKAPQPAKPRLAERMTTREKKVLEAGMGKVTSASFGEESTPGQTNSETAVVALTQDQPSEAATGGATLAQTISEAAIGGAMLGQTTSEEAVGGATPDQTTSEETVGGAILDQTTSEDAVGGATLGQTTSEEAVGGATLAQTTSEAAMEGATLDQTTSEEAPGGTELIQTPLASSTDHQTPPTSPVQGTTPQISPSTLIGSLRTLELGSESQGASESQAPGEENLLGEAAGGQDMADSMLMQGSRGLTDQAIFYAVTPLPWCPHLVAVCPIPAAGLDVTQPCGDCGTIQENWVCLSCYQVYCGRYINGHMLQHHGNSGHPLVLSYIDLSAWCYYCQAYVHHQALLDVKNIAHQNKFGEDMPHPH", "test": "Inhibition of HDAC6"}, "Histone deacetylase 9": {"molecular_target": "Histone deacetylase 9 (Homo sapiens, UniProt Q9UKV0)", "sequence (Q9UKV0 whole entry)": "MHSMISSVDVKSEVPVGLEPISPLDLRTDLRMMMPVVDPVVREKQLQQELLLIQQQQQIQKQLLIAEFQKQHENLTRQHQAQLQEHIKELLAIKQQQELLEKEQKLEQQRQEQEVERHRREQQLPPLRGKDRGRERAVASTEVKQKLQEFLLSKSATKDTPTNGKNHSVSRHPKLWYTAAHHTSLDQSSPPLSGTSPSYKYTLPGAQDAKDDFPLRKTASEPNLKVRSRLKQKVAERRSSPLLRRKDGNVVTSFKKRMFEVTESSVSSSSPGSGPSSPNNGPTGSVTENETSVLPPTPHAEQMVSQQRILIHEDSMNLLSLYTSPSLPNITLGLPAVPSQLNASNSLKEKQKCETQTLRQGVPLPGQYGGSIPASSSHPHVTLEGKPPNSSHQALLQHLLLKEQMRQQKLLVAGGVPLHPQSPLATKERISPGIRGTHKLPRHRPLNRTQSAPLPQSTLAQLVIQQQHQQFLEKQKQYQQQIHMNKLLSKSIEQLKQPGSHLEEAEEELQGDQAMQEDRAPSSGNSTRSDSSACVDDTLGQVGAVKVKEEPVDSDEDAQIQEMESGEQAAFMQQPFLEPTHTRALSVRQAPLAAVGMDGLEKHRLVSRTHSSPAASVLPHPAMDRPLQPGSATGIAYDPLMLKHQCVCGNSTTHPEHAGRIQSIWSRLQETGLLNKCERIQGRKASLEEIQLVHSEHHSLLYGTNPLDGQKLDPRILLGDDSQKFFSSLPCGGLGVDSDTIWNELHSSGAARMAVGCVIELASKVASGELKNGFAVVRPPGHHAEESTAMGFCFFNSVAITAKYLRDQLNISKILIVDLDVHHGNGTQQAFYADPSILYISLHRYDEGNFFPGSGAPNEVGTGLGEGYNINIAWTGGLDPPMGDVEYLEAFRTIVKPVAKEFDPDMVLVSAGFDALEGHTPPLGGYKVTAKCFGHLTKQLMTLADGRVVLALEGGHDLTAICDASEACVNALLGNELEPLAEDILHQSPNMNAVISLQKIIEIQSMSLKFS", "test": "Inhibition of HDAC9"}, "Histone deacetylase 1": {"molecular_target": "Histone deacetylase 1 (Homo sapiens, UniProt Q13547)", "sequence (Q13547 whole entry)": "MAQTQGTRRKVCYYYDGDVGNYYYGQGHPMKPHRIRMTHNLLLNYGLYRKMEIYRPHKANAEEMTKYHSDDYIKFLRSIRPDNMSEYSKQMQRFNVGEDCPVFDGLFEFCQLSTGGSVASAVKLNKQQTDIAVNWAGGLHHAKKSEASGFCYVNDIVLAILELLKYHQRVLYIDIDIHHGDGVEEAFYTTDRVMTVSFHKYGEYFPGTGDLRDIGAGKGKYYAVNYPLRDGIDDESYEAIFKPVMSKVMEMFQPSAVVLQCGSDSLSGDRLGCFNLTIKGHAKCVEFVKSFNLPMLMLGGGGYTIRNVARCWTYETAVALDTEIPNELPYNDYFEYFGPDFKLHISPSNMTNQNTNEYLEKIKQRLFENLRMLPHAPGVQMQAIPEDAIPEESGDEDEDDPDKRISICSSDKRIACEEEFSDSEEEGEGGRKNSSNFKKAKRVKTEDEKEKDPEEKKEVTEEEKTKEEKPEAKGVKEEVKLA", "test": "Inhibition of HDAC1"}}, "data": [{"compound": "O=C(CCCCCCC(=O)Nc1ccc([C@H]2O[C@@H](CSc3ccncc3)C[C@@H](c3ccccc3)O2)cc1)NO", "values": [{"measurement": "Ki", "setting": "[1]", "result": 0.028, "unit": "µM"}, {"measurement": "Ki", "setting": "Histone deacetylase 9", "result": 6.1, "unit": "µM"}, {"measurement": "Ki", "setting": "Histone deacetylase 1", "result": 0.088, "unit": "µM"}]}]}
